The subject of one series is H358. The series is described as follows: MTT cytotoxicity assay, H358 NSCLC cells. It counts as cell-based, human. The settings on record: read-out: IC50 (µM) H358, 96-h incubation.
Another series relates to H226. The series is described as follows: MTT cytotoxicity assay, H226 NSCLC cells. It counts as cell-based, human. The settings on record: read-out: IC50 (µM) H226, 96-h incubation. Background: Tetrazolium assays rely on reduction of a dye to a coloured formazan, in cell work by metabolically active cells.
The nature of series [1]: Water solubility of the salts. The settings on record: chloride salts.
For series [2] the following is noted: cited from earlier work; for potential of tatpp-based reductive processes: vs. NHE at pH 7.0.
For series [3], the system named is supercoiled plasmid pUC18 DNA. The conditions noted are these: cited from earlier work.
In a further series the test system is C57 BL/6 mice. The series can be described thus: Maximum tolerable dose, i.p. injection. It counts as in vivo, mouse. The conditions noted are these: dose level causing no deaths, chloride salt.
The conditions of series [4]: radiolabeled complex, in vivo; cited from earlier work.
For a further series, the system named is mice. The conditions noted are these: cited from earlier work.
In another series the test system is H358 cells. The series is described as follows: Non-hypoxic/hypoxic cytotoxicity, cell count with Trypan blue. It counts as cell-based, human. The settings on record: hypoxic 1 % O2 relative to normoxic, 24 h, Fig. 2A.
For the next series, the system named is NCI-60 panel. The series is described as follows: NCI-60 cell line one-dose screen. The conditions noted are these: single dose 10 µM. It counts as cell-based.
The test system of series [5] is HUVEC. The series is described as follows: Apoptosis, caspase-cleavage and TUNEL, HUVEC. It counts as cell-based, human. The conditions noted are these: 10 µM.
Series [6] deals with pAKT, pEGFR, PI3K, pRb, CDK4, cyclinB1, bcl2, Bax in H358 cells. The series can be described thus: Western blot of apoptotic, proliferative and tumor suppressor proteins. It counts as cell-based, human. The settings on record: H358, 10 µM, 24 h, Fig. 2D. In general terms: Immunoblotting shows a protein as a band on a membrane.
In series [7] the test system is HUVEC. The series can be described thus: Cytotoxicity towards normal HUVEC cells. It counts as cell-based, human.
The test system of series [8] is HUVSMC. The series can be described thus: Apoptosis, HUVSMC. It counts as cell-based, human. The conditions noted are these: similar treatment.
Series [9] has as its system supercoiled plasmid pUC18 DNA. The series is described as follows: DNA cleavage assay. It counts as biochemical.
Series [10] deals with HUVSMC. The series can be described thus: Cytotoxicity towards normal HUVSMC cells. It counts as cell-based, human. The conditions noted are these: read-out: IC50 for normal HUVSMC cells.
Series [11] deals with acetyl cholinesterase (AChE). The settings on record: in vitro and in vivo; cited from earlier work.

Several values for one entry are separate records, joined by “and”; a condition that tells them apart may be missing. Equal values may be shown once. A value given as a limit tells only on which side of the number the result lay.

Usually IC50 stands for the concentration that gives 50% inhibition. As for “mix-[(phen)2Ru(tatpp)Ru(phen)2]^4+ [4^4+]”, the IC50 in the series on H358 was 15.2 ± 1.8 µM. Besides, the IC50 with H226 came out at 16.2 ± 1.9 µM. Also, the water solubility result in series [1] is listed as “water soluble”. The “potential of tatpp-based reductive processes” value in series [2] is more than −0.25 V. Also, in [3], the “DNA cleavage activity upon in situ reduction by glutathione” value was “effective DNA cleaving agent”. For the same compound, in the series on C57 BL/6 mice, the “Maximum Tolerable Dose MTD (mg complex /kg mouse)” value is given as 66 mg complex /kg mouse and the “Maximum Tolerable Dose MTD µmol complex /kg mouse” value came out at 43 µmol complex /kg mouse.
As for `[106Ru+2].c1cnc2c(c1)ccc1cccnc12.c1cnc2c(c1)ccc1cccnc12.c1cnc2c(c1)ccc1cccnc12` [[^106Ru(phen)3]^2+], in [4], the “recovery in the urine” value is “nearly all the complex was recovered in the urine”.
Turning to “ΛΛ-[(phen)2Ru(tatpp)Ru(phen)2]^4+ [ΛΛ-4^4+]”, in the series on H358, the IC50 came to 16.7 ± 1 µM. In addition, the IC50 with H226 came to 17.3 ± 1.5 µM. Moreover, in the series with C57 BL/6 mice, the “Maximum Tolerable Dose MTD (mg complex /kg mouse)” value is on record as 66 mg complex /kg mouse and the “Maximum Tolerable Dose MTD µmol complex /kg mouse” value is recorded as 43 µmol complex /kg mouse.
Take Λ-[(phen)2Ru(tatpp)]^2+ [Λ-3^2+]: the IC50 in the series with H358 is 13.8 ± 1.5 µM; in the series with H226 it was 13 ± 2 µM.
Turning to `[Ru+2].c1ccc(-c2ccccn2)nc1.c1ccc(-c2ccccn2)nc1.c1ccc(-c2ccccn2)nc1` [rac-[Ru(bpy)3]^2+, reference compound], the results for the IC50 with H358 and with H226 were 209 ± 16 µM and 198 ± 15 µM, respectively.
As for “ΔΛ-[(phen)2Ru(tatpp)Ru(phen)2]^4+ [ΔΛ-4^4+]”, the 50% inhibitory concentration (IC50) in the series with H358 amounted to 15.3 ± 1.5 µM. For the same compound, in the series on H226, the IC50 amounted to 18.6 ± 1.5 µM. Besides, in the series on C57 BL/6 mice, the “Maximum Tolerable Dose MTD (mg complex /kg mouse)” value stood at 66 mg complex /kg mouse and the “Maximum Tolerable Dose MTD µmol complex /kg mouse” value came out at 43 µmol complex /kg mouse.
As for “cis-Pt(NH3)2Cl2 [cisplatin, reference compound]”, in the series with mice (murine acute toxicity), the LD50 was ~ 57 µmol/kg. Also, the “potentiation of cytotoxicity under hypoxic conditions” value in the series on H358 cells is on record as “neither of which showed significant potentiation”.
With `[Ru+2].c1cnc2c(c1)ccc1cccnc12.c1cnc2c(c1)ccc1cccnc12.c1cnc2c(c1)ccc1cccnc12` [Δ-1^2+, Δ-[Ru(phen)3]^2+], the IC50 in the series with H358 came to 64.8 ± 4.2 µM; with H226 it was 93.6 ± 6.3 µM.
In the case of “ΔΔ-[(phen)2Ru(tatpp)Ru(phen)2]^4+ [ΔΔ-4^4+]”, the IC50 in the series with H358 was 9.5 ± 1.2 µM; in the series with H226, 9.3 ± 0.9 µM; with HUVEC [7] (read-out: IC50 for normal HUVEC cells) it was approximately 100 µM; in the series on HUVSMC [10], approximately 100 µM. In the series on NCI-60 panel, the “mean growth percentage, whole panel” value stood at 80%. Besides, in the series with HUVEC [5], the “apoptosis in HUVEC” value is “did not show apoptosis”. Besides, the Bax level result in series [6] is recorded as “significantly increased”. Moreover, in series [6], the “kinase signaling (pAKT, pEGFR, PI3K, pRb, CDK4, cyclinB1, bcl2)” value is on record as “generalized decrease in kinase signaling”. For the same compound, the “difference in cytotoxicity, malignant vs normal cells” value in the series with HUVEC [7] (malignant cell lines vs HUVEC and HUVSMC) is approximately 10 fold. In the series on HUVSMC [8], the “apoptosis in HUVSMC” value is given as “did not show apoptosis”. For the same compound, the “DNA cleavage, dependence on GSH” value in series [9] (presence or absence of GSH, Fig. 3A) is “only show DNA cleavage when GSH is present”. The “DNA cleavage when O2 is absent” value in [9] (with GSH, anaerobic vs aerobic) is listed as “appreciably enhanced”. The “Maximum Tolerable Dose MTD (mg complex /kg mouse)” value in the series on C57 BL/6 mice was 100 mg complex /kg mouse. Moreover, the “Maximum Tolerable Dose MTD µmol complex /kg mouse” value in the series on C57 BL/6 mice was found to be 64 µmol complex /kg mouse.
With “mix-[(phen)2Ru(tpphz)Ru(phen)2]^4+ [2^4+]”, the IC50 in the series on H358 was 41.8 ± 2.7 µM. For the same compound, the IC50 with H226 stood at 51.1 ± 3.4 µM. Moreover, the water solubility result in series [1] is listed as “water soluble”. Further, in series [2], the reduction potential required is on record as not above −0.70 V. In addition, in series [3], the “DNA cleavage activity upon in situ reduction by glutathione” value is “nor do they exhibit any DNA cleavage activity”. For the same compound, in the series with C57 BL/6 mice, the “Maximum Tolerable Dose MTD (mg complex /kg mouse)” value is on record as 3.3 mg complex /kg mouse and the “Maximum Tolerable Dose MTD µmol complex /kg mouse” value amounted to 2.5 µmol complex /kg mouse.
Turning to `[Ru+2].c1cnc2c(c1)ccc1cccnc12.c1cnc2c(c1)ccc1cccnc12.c1cnc2c(c1)ccc1cccnc12` [1^2+, rac-[Ru(phen)3]^2+], the “inhibition of acetyl cholinesterase (AChE)” value in series [11] is “competitive inhibitor”. Further, the IC50 with H358 was 90 µM and 86.7 µM; in the series on H226 it was 90 µM and 92.8 µM. The minimum lethal dose in the series on mice (iodo salt, mice, i.p. injection) is recorded as 12 µmol/kg. The “toxicity when administered orally” value in the series with mice (oral) is reported as “non-toxic”. For the same compound, the reduction potential required in [2] is listed as not above −0.70 V. Also, the “DNA cleavage activity upon in situ reduction by glutathione” value in series [3] is listed as “nor do they exhibit any DNA cleavage activity”. For the same compound, the “Maximum Tolerable Dose MTD (mg complex /kg mouse)” value in the series with C57 BL/6 mice was 6.6 mg complex /kg mouse. For the same compound, the “Maximum Tolerable Dose MTD µmol complex /kg mouse” value in the series on C57 BL/6 mice is 9.1 µmol complex /kg mouse.
Consider [Ru(phen)2(dppz)]^2+, for which the “potentiation of cytotoxicity under hypoxic conditions” value with H358 cells is on record as “neither of which showed significant potentiation”.
For the compound rac-[(phen)2Ru(tatpp)]^2+ [3^2+], the IC50 with H358 stood at 13.2 ± 1.8 µM. The IC50 in the series on H226 was determined as 12.5 ± 1.9 µM. For the same compound, in [1], the water solubility entry was “water soluble”. In series [2], the “potential of tatpp-based reductive processes” value was more than −0.25 V. In the series on C57 BL/6 mice, the “Maximum Tolerable Dose MTD (mg complex /kg mouse)” value is given as 67 mg complex /kg mouse and the “Maximum Tolerable Dose MTD µmol complex /kg mouse” value was determined as 65 µmol complex /kg mouse.
With `[Ru+2].c1cnc2c(c1)ccc1cccnc12.c1cnc2c(c1)ccc1cccnc12.c1cnc2c(c1)ccc1cccnc12` [Λ-1^2+, Λ-[Ru(phen)3]^2+], the IC50 in the series with H358 came out at 61.4 ± 4.7 µM; in the series on H226, 116 ± 6.9 µM.

(Values after article PMC3856889 (Molecular cancer therapeutics, 2013).)
